From ChEMBL document CHEMBL5370603, “N-(2-Aminophenyl)-benzamide Inhibitors of Class I HDAC Enzymes with Antiproliferative and Antifibrotic Activity” (J Med Chem, 2023)
Activity calls are given as the source filed them. The calls are words filed in the database; no cut-off is given here.

Tests used:
Histone deacetylase 1 [1] = target: T1, Histone deacetylase 1 (Homo sapiens, UniProt Q13547); assay: Inhibition of human recombinant HDAC1 using Ac-Leu-Gly-Lys(Ac)-AMC as substrate preincubated with enzyme for 30 mins followed by substrate addition and measured after 90 mins by fluorescence based analysis
T1 sequence (Q13547 whole entry): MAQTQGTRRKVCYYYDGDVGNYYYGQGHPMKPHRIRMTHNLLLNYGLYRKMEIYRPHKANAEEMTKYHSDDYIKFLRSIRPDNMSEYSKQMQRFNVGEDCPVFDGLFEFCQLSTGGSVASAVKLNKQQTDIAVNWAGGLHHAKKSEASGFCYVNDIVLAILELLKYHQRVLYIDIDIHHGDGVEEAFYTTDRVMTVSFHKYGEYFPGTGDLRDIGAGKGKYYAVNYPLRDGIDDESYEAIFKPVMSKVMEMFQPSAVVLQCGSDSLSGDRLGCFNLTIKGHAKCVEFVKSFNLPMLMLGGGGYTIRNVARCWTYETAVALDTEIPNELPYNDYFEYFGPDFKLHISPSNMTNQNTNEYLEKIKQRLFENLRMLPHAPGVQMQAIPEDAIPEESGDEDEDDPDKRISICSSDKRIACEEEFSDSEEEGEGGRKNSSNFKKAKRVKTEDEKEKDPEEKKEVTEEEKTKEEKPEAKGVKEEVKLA

Caco-2 = assay: Antiproliferative activity against human Caco-2 cells assessed as inhibition of cell growth incubated for 72 hrs by MTT assay; type: functional, cell-based; details: Caco-2, 72 h
Histone deacetylase 2 = Histone deacetylase 2 (Homo sapiens, UniProt Q92769); assay: Inhibition of human recombinant HDAC2 using Ac-Leu-Gly-Lys(Ac)-AMC as substrate preincubated with enzyme for 30 mins followed by substrate addition and measured after 90 mins by fluorescence based analysis
Sequence of Histone deacetylase 2 (Q92769 whole entry): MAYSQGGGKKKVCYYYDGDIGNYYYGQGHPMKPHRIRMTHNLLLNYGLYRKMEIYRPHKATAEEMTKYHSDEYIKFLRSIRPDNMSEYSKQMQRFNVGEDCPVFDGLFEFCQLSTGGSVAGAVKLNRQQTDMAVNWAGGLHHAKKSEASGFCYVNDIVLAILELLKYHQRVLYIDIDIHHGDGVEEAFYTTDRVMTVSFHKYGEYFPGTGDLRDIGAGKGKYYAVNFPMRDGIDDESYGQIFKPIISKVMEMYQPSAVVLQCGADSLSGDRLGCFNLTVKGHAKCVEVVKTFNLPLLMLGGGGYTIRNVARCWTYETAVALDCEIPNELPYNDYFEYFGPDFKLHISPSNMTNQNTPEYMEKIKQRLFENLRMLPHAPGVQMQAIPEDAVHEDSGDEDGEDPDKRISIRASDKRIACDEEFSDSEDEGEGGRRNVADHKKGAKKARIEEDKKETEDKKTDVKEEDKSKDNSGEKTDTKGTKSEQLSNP

SF-268 = assay: Antiproliferative activity against human SF-268 cells assessed as inhibition of cell growth incubated for 72 hrs by MTT assay; type: functional, cell-based; details: SF-268, 72 h
A549 = assay: Antiproliferative activity against human A549 cells assessed as inhibition of cell growth incubated for 72 hrs by MTT assay; type: functional, cell-based; details: A549, 72 h
[2] = target: T2, Protein deacetylase HDAC6 (Homo sapiens, UniProt Q9UBN7); assay: Inhibition of C-terminal FLAG-tagged human recombinant full length HDAC6 expressed in baculovirus expression system using Boc-Lys(Ac)-AMC as substrate preincubated with enzyme for 15 mins followed by substrate addition and measured after 60 mins by fluorescence based analysis
T2 sequence (Q9UBN7 whole entry): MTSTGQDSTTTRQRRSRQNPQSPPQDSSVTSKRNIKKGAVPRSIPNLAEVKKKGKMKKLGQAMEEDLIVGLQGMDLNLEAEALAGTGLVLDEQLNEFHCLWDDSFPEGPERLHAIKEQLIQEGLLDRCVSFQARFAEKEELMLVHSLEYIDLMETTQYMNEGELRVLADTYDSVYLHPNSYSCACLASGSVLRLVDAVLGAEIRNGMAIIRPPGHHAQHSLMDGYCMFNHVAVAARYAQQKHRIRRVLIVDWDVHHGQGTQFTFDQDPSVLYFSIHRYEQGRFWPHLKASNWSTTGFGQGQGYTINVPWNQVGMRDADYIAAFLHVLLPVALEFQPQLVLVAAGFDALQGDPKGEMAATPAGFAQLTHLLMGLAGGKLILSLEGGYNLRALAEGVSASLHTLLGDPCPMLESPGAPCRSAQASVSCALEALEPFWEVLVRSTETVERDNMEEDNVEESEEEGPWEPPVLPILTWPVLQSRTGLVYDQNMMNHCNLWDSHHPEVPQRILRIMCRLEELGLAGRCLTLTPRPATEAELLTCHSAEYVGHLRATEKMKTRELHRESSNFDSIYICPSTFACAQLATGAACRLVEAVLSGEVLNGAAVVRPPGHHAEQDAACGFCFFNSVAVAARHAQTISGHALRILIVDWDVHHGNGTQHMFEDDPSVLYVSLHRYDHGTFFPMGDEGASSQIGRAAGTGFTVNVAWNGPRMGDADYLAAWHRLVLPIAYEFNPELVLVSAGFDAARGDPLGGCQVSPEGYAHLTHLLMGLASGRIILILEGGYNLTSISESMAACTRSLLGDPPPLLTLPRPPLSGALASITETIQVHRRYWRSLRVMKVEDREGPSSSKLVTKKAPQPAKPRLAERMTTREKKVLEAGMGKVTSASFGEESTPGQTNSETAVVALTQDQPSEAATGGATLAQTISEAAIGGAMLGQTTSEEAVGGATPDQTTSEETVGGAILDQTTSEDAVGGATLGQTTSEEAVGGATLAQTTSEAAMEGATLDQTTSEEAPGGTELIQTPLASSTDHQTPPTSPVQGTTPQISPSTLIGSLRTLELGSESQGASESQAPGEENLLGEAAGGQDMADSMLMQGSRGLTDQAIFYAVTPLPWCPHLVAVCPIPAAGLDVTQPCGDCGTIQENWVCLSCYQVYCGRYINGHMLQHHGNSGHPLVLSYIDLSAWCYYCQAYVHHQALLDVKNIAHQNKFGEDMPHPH

Histone deacetylase 1 [3] = target: T1, Histone deacetylase 1; assay: Inhibition of human recombinant HDAC1 using Ac-Leu-Gly-Lys(Ac)-AMC as substrate preincubated with enzyme for 30 mins followed by substrate addition and measured after 90 mins by fluorescence based analysis relative to control; details: time 120.0 min
Histone deacetylase 4 = Histone deacetylase 4 (Homo sapiens, UniProt P56524); assay: Inhibition of N-terminal GST-tagged/C-terminal His tagged human recombinant HDAC4 (627 to 1084 residues) expressed in baculovirus-infected Sf9 cells using Ac-Leu-Gly-Lys(trifluoroAc)-AMC as substrate preincubated with enzyme for 15 mins followed by substrate addition and measured after 60 mins by fluorescence based analysis
Sequence of Histone deacetylase 4 (P56524 whole entry, the tested form may be a part): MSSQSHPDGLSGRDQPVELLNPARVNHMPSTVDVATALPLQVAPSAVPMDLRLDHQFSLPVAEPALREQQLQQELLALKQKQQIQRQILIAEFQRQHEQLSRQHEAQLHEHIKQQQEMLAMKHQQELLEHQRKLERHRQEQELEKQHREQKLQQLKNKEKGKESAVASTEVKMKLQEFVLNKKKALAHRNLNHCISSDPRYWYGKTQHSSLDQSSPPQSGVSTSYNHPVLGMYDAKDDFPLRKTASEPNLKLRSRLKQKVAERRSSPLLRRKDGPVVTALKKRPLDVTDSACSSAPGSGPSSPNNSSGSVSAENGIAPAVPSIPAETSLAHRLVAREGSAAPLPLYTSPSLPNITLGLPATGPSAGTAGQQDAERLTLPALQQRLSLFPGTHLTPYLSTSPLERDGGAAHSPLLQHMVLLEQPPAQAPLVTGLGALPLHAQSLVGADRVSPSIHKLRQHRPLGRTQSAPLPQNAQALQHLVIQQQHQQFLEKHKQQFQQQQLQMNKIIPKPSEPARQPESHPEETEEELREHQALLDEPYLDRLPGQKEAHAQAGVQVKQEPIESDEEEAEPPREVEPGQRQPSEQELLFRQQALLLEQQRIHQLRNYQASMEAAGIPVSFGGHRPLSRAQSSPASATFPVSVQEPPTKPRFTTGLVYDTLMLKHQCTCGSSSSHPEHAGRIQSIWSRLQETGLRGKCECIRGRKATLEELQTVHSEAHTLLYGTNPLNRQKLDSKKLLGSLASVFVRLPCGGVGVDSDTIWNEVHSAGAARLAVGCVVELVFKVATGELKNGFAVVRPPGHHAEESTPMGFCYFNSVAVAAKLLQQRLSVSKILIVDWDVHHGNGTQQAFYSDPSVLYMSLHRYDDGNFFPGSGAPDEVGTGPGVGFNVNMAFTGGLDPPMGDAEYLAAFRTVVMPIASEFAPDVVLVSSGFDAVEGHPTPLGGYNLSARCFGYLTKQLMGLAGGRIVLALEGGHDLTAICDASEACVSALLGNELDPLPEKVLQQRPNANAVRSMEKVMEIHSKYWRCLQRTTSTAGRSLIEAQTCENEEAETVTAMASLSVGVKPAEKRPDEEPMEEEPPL

Histone deacetylase 8 = target: T3, Histone deacetylase 8 (Homo sapiens, UniProt Q9BY41); assay: Inhibition of C-terminal His-tagged human recombinant full length HDAC8 (1 to 377 residues) expressed in Sf9 cells using Ac-Leu-Gly-Lys(trifluoroAc)-AMC as substrate preincubated with enzyme for 30 mins followed by substrate addition and measured after 90 mins by fluorescence based analysis
T3 sequence (Q9BY41 whole entry): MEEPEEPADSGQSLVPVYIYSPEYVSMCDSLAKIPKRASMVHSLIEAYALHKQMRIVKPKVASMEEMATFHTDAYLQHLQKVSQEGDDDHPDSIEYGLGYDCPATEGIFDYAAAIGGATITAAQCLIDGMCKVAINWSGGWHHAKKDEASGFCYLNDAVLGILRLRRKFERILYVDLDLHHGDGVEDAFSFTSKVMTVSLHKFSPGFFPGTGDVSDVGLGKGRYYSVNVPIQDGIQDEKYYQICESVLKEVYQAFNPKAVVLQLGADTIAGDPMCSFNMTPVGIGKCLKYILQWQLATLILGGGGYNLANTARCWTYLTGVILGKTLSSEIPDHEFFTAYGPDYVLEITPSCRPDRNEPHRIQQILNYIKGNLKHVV

[4] = target: T4, Class 1 histone deacetylase (Homo sapiens) (UniProt Q13547+O15379+Q92769+Q9BY41); assay: Inhibition of class I HDAC in human A549 cells assessed as increase in histone H3 acetylation at 5 uM incubated for 48 hrs by immunoblot analysis; type: cell-based
[5] = target: T4, Class 1 histone deacetylase (Homo sapiens); assay: Inhibition of class I HDAC in human A549 cells assessed as downregulation of ERBB2 gene expression at 5 uM incubated for 48 hrs by qRT-PCR analysis; type: cell-based
[6] = target: T4, Class 1 histone deacetylase (Homo sapiens); assay: Inhibition of class I HDAC in human A549 cells assessed as downregulation of EGFR protein expression at 5 uM incubated for 48 hrs by western blot analysis; type: cell-based
[7] = target: T5, Protein deacetylase HDAC6 (Homo sapiens) (UniProt Q9UBN7); assay: Inhibition of HDAC6 in human A549 cells assessed as increase in acetylated alpha-tubulin level at 5 uM incubated for 48 hrs by immunoblot analysis; type: cell-based
T5 sequence (whole entry): T2 sequence (Q9UBN7 whole entry)

Histone deacetylase 3 = Histone deacetylase 3 (Homo sapiens, UniProt O15379); assay: Inhibition of human recombinant HDAC3 using Ac-Leu-Gly-Lys(Ac)-AMC as substrate preincubated with enzyme for 30 mins followed by substrate addition and measured after 90 mins by fluorescence based analysis
Sequence of Histone deacetylase 3 (O15379 whole entry): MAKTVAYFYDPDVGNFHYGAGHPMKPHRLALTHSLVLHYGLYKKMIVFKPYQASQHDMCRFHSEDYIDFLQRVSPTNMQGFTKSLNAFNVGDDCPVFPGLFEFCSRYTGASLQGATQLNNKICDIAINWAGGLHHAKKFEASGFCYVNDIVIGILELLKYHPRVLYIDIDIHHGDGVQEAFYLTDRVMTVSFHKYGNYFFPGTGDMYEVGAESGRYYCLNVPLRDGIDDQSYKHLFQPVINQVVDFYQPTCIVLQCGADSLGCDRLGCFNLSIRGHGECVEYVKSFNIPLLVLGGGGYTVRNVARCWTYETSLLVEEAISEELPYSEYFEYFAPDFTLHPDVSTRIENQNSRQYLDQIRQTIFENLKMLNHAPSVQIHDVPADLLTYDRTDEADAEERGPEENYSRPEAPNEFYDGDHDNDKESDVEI

[8] = target: T4, Class 1 histone deacetylase (Homo sapiens); assay: Inhibition of class I HDAC in human A549 cells assessed as downregulation of EGFR gene expression at 5 uM incubated for 48 hrs by qRT-PCR analysis; type: cell-based
[9] = target: T4, Class 1 histone deacetylase (Homo sapiens); assay: Inhibition of class I HDAC in human A549 cells assessed as downregulation of STAT3 gene expression at 5 uM incubated for 48 hrs by qRT-PCR analysis; type: cell-based
[10] = target: T4, Class 1 histone deacetylase (Homo sapiens); assay: Inhibition of class I HDAC in human A549 cells assessed as downregulation of MYC gene expression at 5 uM incubated for 48 hrs by qRT-PCR analysis; type: cell-based

SMILES | IC50 (Histone deacetylase 1 [1]) | IC50 (Histone deacetylase 2) | IC50 (SF-268) | IC50 (A549) | IC50 [2] | other results
Nc1ccccc1NC(=O)c1ccc(COc2ccc(CNC(=O)[C@@H]3CCC(=O)N3Cc3ccc(F)cc3)cc2)cc1 | 0.216 µM | 0.348 µM | 6.5 µM | 6.9 µM | > 100 µM | IC50 (Caco-2): 1.9 µM
Nc1ccccc1NC(=O)c1ccc(COc2ccc(CNC(=O)C3CCCO3)cc2)cc1 (stereo not given) | 0.111 µM |  | > 25 µM | > 25 µM | > 10 µM | inhibition (Histone deacetylase 1 [3]): 75%
Nc1ccccc1NC(=O)c1ccc(COc2ccc(CNC(=O)[C@H]3CCCN3Cc3ccccc3)cc2)cc1 | 0.093 µM | 0.083 µM | 3.1 µM | 4.7 µM | > 100 µM | 
Nc1ccccc1NC(=O)c1ccc(COc2ccc(CNC(=O)[C@@H]3CCCN3Cc3ccccc3)cc2)cc1 | 0.113 µM | 0.192 µM | 3.4 µM | 3.7 µM | > 100 µM | IC50 (Histone deacetylase 4): > 100 µM; IC50 (Histone deacetylase 8): > 10 µM; inhibition [4]: Active; IC50 (Caco-2): 1.9 µM; inhibition [5]: inactive; inhibition [6]: Active; inhibition [7]: inactive; IC50 (Histone deacetylase 3): 0.387 µM; inhibition [8]: Active; inhibition [9]: inactive; inhibition [10]: inactive
O=C(NCc1ccccc1)c1ccc(COc2ccc(CNC(=O)[C@@H]3CCC(=O)N3Cc3ccccc3)cc2)cc1 | > 10 µM |  | > 25 µM | > 25 µM | > 10 µM | 
Nc1ccccc1NC(=O)c1ccc(COc2ccc(CNC(=O)c3ccccn3)cc2)cc1 | 0.2 µM |  | 9.8 µM | 6.8 µM | > 10 µM | 
O=C(O)c1ccc(COc2ccc(CNC(=O)[C@@H]3CCC(=O)N3Cc3ccccc3)cc2)cc1 | > 10 µM |  | > 25 µM | > 25 µM | > 10 µM | 
NCc1ccc(OCc2ccc(C(=O)Nc3ccccc3N)cc2)cc1 | 0.1 µM |  | 8.5 µM | > 25 µM | > 10 µM | IC50 (Histone deacetylase 4): > 100 µM; IC50 (Histone deacetylase 8): > 10 µM; IC50 (Histone deacetylase 3): 0.052 µM
Nc1ccccc1NC(=O)c1ccc(COc2ccc(NC(=O)[C@@H]3CCC(=O)N3Cc3ccccc3)cc2)cc1 | 0.43 µM |  | > 25 µM | > 25 µM | > 10 µM | inhibition (Histone deacetylase 1 [3]): 75%
O=C(NCc1ccc(OCc2ccc(B(O)O)cc2)cc1)[C@@H]1CCC(=O)N1Cc1ccccc1 | > 10 µM |  | > 25 µM | > 25 µM | > 10 µM | 
Nc1ccccc1NC(=O)c1ccc(COc2ccc(CNC(=O)[C@@H]3CCCN3)cc2)cc1 | 0.055 µM | 0.072 µM | 3.3 µM | 10 µM | > 100 µM | IC50 (Histone deacetylase 4): > 100 µM; IC50 (Histone deacetylase 8): > 10 µM; IC50 (Histone deacetylase 3): 0.061 µM
Nc1ccccc1NC(=O)c1ccc(COc2ccc(CNC(=O)[C@H]3CCC(=O)N3Cc3ccccc3)cc2)cc1 | 0.092 µM | 0.143 µM | 3.4 µM | 3.9 µM | > 100 µM | IC50 (Histone deacetylase 4): > 100 µM; IC50 (Histone deacetylase 8): > 10 µM; inhibition [4]: Active; IC50 (Caco-2): 1.9 µM; inhibition [5]: inactive; inhibition [6]: Active; inhibition [7]: inactive; IC50 (Histone deacetylase 3): 0.431 µM; inhibition [8]: Active; inhibition [9]: inactive; inhibition [10]: inactive
Nc1ccccc1NC(=O)c1ccc(COc2ccc(CNC(=O)[C@@H]3CCCN3C(=O)OCc3ccccc3)cc2)cc1 | 0.202 µM |  | 12.7 µM | > 25 µM | > 10 µM | 
Nc1ccccc1NC(=O)c1ccc(COc2ccc(CNC(=O)[C@@H]3CCCN3C(=O)c3ccccc3)cc2)cc1 | 0.216 µM |  | 9.2 µM | 16 µM | > 10 µM | 
O=C(Nc1ccccc1)c1ccc(COc2ccc(CNC(=O)[C@@H]3CCC(=O)N3Cc3ccccc3)cc2)cc1 | > 10 µM |  | > 25 µM | > 25 µM | > 10 µM | 
O=C(NO)c1ccc(COc2ccc(CNC(=O)[C@@H]3CCC(=O)N3Cc3ccccc3)cc2)cc1 | 1.98 µM |  |  | > 25 µM | 0.143 µM | 
Nc1ccccc1NC(=O)c1ccc(COc2ccc(CN3C(=O)CC[C@H]3CC(=O)NCc3ccccc3)cc2)cc1 | 0.084 µM | 0.217 µM | 7.1 µM | 15 µM | > 100 µM | 
CC(C)(C)OC(=O)NCc1ccc(OCc2ccc(C(=O)Nc3ccccc3N)cc2)cc1 | 1.71 µM |  | 8.6 µM | 14.6 µM | > 10 µM | 
Nc1ccccc1NC(=O)c1ccc(COc2ccc(CNC(=O)c3cc4ccccc4[nH]3)cc2)cc1 | 0.182 µM |  | 16.5 µM | 5.2 µM | > 10 µM | 
Nc1ccccc1NC(=O)c1ccc(COc2ccc(CNC(=O)[C@@H]3CCCN3Cc3ccc(F)cc3)cc2)cc1 | 0.13 µM | 0.196 µM | 4.8 µM | 5.1 µM | > 100 µM | 
O=C(O)c1ccc(COc2ccc(CNC(=O)[C@@H]3CCC(=O)N3Cc3ccc(Br)cc3)cc2)cc1 | > 10 µM |  | > 25 µM | > 25 µM | > 10 µM | 
O=C(O)c1ccc(COc2ccc(CNC(=O)[C@@H]3CCCN3Cc3ccccc3)cc2)cc1 | > 10 µM |  | > 25 µM | > 25 µM | > 10 µM | 
Nc1ccccc1NC(=O)c1ccc(COc2ccc(CNC(=O)[C@@H]3CCC(=O)N3Cc3ccc(Br)cc3)cc2)cc1 | 0.051 µM | 0.082 µM | 6.6 µM | 9.2 µM | > 100 µM | 
